Source: the NIST ThermoML archive (doi:10.1016/j.jct.2017.08.017)
Values joined by “and” are separate entries in the source; they are usually repeats but may differ in a detail not shown here. Equal entries are not always repeated. ± gives the expanded uncertainty stated by the source. Each block holds one compound with its values, some of them ahead of it.

Experiments:
[1] = molar enthalpy of vaporization or sublimation; conditions: 298.15 K; Crystal; Static calorimetry
[2] = Crystal, Calculated from knudsen effusion weight loss

molar enthalpy [1]: 23.7 ± 0.406 kcal/mol
SMILES: c1ccc(-c2nc3ccccc3s2)cc1 [2-phenylbenzothiazole]

molar enthalpy [1]: 21.7 ± 0.478 kcal/mol
SMILES: c1ccc(-c2nc3ccccc3o2)cc1 [2-phenylbenzoxazole]

molar enthalpy [1]: 25.1 ± 0.526 kcal/mol
SMILES: Oc1ccccc1-c1nc2ccccc2s1 [2-(2-hydroxyphenyl)-1,3-benzothiazole]

molar enthalpy [1]: 24 ± 0.43 kcal/mol
SMILES: Oc1ccccc1-c1nc2ccccc2o1 [2-(2-hydroxyphenyl)benzoxazole]
vapor or sublimation pressure ([2]; 331.16 K): 0.000127 ± 0.00012 kPa and 0.00012 ± 0.00012 kPa and 0.000119 ± 0.00012 kPa
vapor or sublimation pressure ([2]; 333.19 K): 0.000156 ± 0.00012 kPa and 0.000152 ± 0.00012 kPa and 0.00015 ± 0.00012 kPa
vapor or sublimation pressure ([2]; 335.13 K): 0.000191 ± 0.00012 kPa and 0.000188 ± 0.00012 kPa
vapor or sublimation pressure ([2]; 337.16 K): 0.000233 ± 0.00012 kPa and 0.00023 ± 0.00012 kPa and 0.000248 ± 0.00012 kPa
vapor or sublimation pressure ([2]; 339.18 K): 0.000301 ± 0.00012 kPa and 0.000288 ± 0.00012 kPa and 0.000294 ± 0.00012 kPa
vapor or sublimation pressure ([2]; 341.12 K): 0.000365 ± 0.00012 kPa and 0.000362 ± 0.00012 kPa and 0.000366 ± 0.00012 kPa
vapor or sublimation pressure ([2]; 343.16 K): 0.000446 ± 0.00012 kPa and 0.000441 ± 0.00012 kPa and 0.000477 ± 0.00012 kPa
vapor or sublimation pressure ([2]; 345.17 K): 0.000571 ± 0.00012 kPa and 0.000545 ± 0.00012 kPa and 0.000558 ± 0.00012 kPa
vapor or sublimation pressure ([2]; 347.11 K): 0.000688 ± 0.00012 kPa and 0.00068 ± 0.00012 kPa
vapor or sublimation pressure ([2]; 349.16 K): 0.000829 ± 0.00012 kPa and 0.000822 ± 0.00012 kPa and 0.000879 ± 0.00012 kPa
vapor or sublimation pressure ([2]; 351.16 K): 0.001027 ± 0.00014 kPa and 0.001049 ± 0.00014 kPa and 0.001006 ± 0.00014 kPa
vapor or sublimation pressure ([2]; 353.12 K): 0.001264 ± 0.00015 kPa and 0.001273 ± 0.00015 kPa and 0.00126 ± 0.00015 kPa
